The text below walks through data of patent US7670613B2, “Androgen modulators” (Pfizer Inc., priority 2004, dated 2010).

The IC50 is the concentration at which inhibition is half-maximal.

One assay addresses T1, hAR (Homo sapiens, UniProt P10275).
T1 construct: made in house; host or cells: baculovirus/Sf9 insect cells
T1 sequence (P10275 1-920): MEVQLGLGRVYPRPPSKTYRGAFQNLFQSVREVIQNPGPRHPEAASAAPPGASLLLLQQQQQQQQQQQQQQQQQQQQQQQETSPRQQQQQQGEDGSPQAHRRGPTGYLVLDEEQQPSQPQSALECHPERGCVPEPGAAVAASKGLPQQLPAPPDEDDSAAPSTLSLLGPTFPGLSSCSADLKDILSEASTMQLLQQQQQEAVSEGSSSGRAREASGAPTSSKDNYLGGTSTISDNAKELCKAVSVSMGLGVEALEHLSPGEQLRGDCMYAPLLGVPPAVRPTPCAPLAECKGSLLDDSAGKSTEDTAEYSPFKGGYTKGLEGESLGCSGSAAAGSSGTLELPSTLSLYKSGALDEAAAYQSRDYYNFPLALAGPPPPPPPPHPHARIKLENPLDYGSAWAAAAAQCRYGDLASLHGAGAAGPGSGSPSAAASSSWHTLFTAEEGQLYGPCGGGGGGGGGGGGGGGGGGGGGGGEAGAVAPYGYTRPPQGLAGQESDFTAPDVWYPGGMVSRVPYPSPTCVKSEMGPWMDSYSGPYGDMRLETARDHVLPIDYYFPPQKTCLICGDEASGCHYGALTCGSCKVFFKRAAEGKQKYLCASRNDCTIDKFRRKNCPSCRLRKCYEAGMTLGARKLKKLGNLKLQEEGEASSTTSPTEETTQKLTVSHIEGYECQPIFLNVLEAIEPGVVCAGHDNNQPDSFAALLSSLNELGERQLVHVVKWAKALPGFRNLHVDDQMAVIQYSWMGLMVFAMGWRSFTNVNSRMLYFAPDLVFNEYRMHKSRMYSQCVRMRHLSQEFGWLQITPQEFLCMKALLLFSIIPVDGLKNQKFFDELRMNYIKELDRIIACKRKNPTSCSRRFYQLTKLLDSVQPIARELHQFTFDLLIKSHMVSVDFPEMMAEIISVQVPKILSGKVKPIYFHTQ
Put plainly: Competitive binding analysis on baculovirus/Sf9 generated hAR extracts with 3H-DHT tracer. The conditions noted are these: AR Binding IC50, hAR extract, 1 nM 3H-DHT, one hour at 4° C.; mean of multiple tests. As for the experimental part: The description below describes how the assay was carried out.
Competitive binding analysis was performed on baculovirus/Sf9 generated hAR extracts in the presence or absence of different concentrations of test agent and a fixed concentration of ^3H-dihydrotestosterone (^3H-DHT) as tracer. This binding assay method is a modification of a protocol previously described (Liao S., et. al. J. Steroid Biochem. 20:11-17 1984). Briefly, progressively decreasing concentrations of compounds are incubated in the presence of hAR extract (Chang et al. P.N.A.S. Vol. 89, pp. […], 1992), hydroxylapatite, and 1 nM ^3H-DHT for one hour at 4° C. Subsequently, the binding reactions are washed three times to completely remove excess unbound ^3H-DHT. hAR bound ^3H-DHT levels are determined in the presence of compounds (i.e. competitive binding) and compared to levels bound when no competitor is present (i.e. maximum binding). Compound binding affinity to the hAR is expressed as the concentration of compound at which one half of the maximum binding is inhibited.
Turning to `CO[C@H]1CCC[C@@H]1Oc1ccc(C#N)c(Cl)c1` (relative stereo) [Example 35, 2-Chloro-4-(trans-2-methoxy-cyclopentyloxy)-benzonitrile], the IC50 was found to be 97 nM.

With `CO[C@@H]1CCCC[C@H]1Oc1ccc(C#N)c(Cl)c1` (relative stereo) [Example 39, 2-Chloro-4-(trans-2-methoxy-cyclohexyloxy)-benzonitrile], the IC50 stood at 76 nM.

Take `CC1CCCC(Oc2ccc(C#N)c(Cl)c2)C1C` (centres unmarked) [Example 20, 2-Chloro-4-(2,3-dimethyl-cyclohexyloxy)-benzonitrile]: the IC50 turned out to be 227 nM.

Consider `CC1CCCCC1Oc1ccc(C#N)c(Cl)c1` (centres unmarked) [Example 28, 2-Chloro-4-(2-methyl-cyclohexyloxy)-benzonitrile], for which the IC50 turned out to be 49 nM.

For the compound `N#Cc1ccc(OC2CCCCC2c2ccccc2)cc1Cl` (centres unmarked) [Example 29, 2-Chloro-4-(2-phenyl-cyclohexyloxy)-benzonitrile], the IC50 stood at 89 nM.

As for `C[C@H]1CCCC[C@@H]1Oc1ccc(C#N)c(Cl)c1` [Example 30, 2-Chloro-4-(2-(S)-methyl-(S)-cyclohexyloxy)-benzonitrile], the IC50 was found to be 24 nM.

As to `N#Cc1ccc(O[C@@H]2CCCC[C@@H]2c2ccccc2)cc1Cl` [Example 56, (1R,2R)-2-Chloro-4-(2-phenyl-cyclohexyloxy)-benzonitrile], the IC50 was 366 nM.

As to `N#Cc1ccc(O[C@@H]2CCCC[C@H]2c2ccccc2)cc1Cl` [Example 58, (1R,2S) 2-Chloro-4-(2-phenyl-cyclohexyloxy)-benzonitrile], the concentration for half-maximal inhibition (IC50) was 278 nM.

Still in this assay, the particulars now being: hAR extract, 1 nM 3H-DHT, one hour at 4° C.; mean of multiple tests; read-out: AR Binding IC50.
With `C[C@H]1CCC[C@@H]1Oc1ccc(C#N)c(C(F)(F)F)c1` (relative stereo) [Example 2, 4-(trans-2-Methyl-cyclopentyloxy)-2-trifluoromethyl-benzonitrile], the IC50 was determined as 153 nM.

As to `C=CCO[C@H]1CCC[C@H]1Oc1ccc(C#N)c(Cl)c1` (relative stereo) [Example 37, 4-(cis-2-Allyloxy-cyclopentyloxy)-2-chloro-benzonitrile], the half-inhibitory concentration (IC50) is 134 nM.

In the case of `C=CCO[C@H]1CCC[C@@H]1Oc1ccc(C#N)c(Cl)c1` (relative stereo) [Example 38, 4-(trans-2-Allyloxy-cyclopentyloxy)-2-chloro-benzonitrile], the IC50 was determined as 120 nM.

`N#Cc1ccc(OC2CCCCCC2)cc1C(F)(F)F` [Example 5, 4-cycloheptyloxy-2-trifluoromethyl-benzonitrile]: the half-inhibitory concentration (IC50) was found to be 319 nM.

`CC1CCCC(Oc2ccc(C#N)c(C(F)(F)F)c2)C1C` (centres unmarked) [Example 6, 4-(2,3-Dimethyl-cyclohexyloxy)-2-trifluoromethyl-benzonitrile]: the IC50 was 356 nM.

Regarding `C=C(C)[C@H]1CC[C@H](C)[C@@H](Oc2ccc(C#N)c(C(F)(F)F)c2)C1` [Example 13, (1S,2S,5S)-4-(5-Isopropenyl-2-methyl-cyclohexyloxy)-2-trifluoromethyl-benzonitrile], the IC50 worked out at 102 nM.

Take `COC1CCC(Oc2ccc(C#N)c(C(F)(F)F)c2)CC1` (centres unmarked) [Example 15, 4-(4-Methoxy-cyclohexyloxy)-2-trifluoromethyl-benzonitrile]: the 50% inhibitory concentration (IC50) is 243 nM.

For `C[C@H]1CC[C@@H](Oc2ccc(C#N)c(C(F)(F)F)c2)CC1` [Example 16], the IC50 is 479 nM.

Turning to `C[C@H]1CCC[C@@H]1Oc1ccc(C#N)c(C(F)(F)F)c1` [Example 17, (1S,2S)-4-(2-Methyl-cyclopentyloxy)-2-trifluoromethyl-benzonitrile], the concentration for half-maximal inhibition (IC50) was 252 nM.

In the case of `N#Cc1ccc(OC2CCC2)cc1C(F)(F)F` [Example 18, 4-Cyclobutoxy-2-trifluoromethyl-benzonitrile], the IC50 was 466 nM.

For `C[C@@H]1CCCC[C@H]1Oc1ccc(C#N)cc1Cl` [Example 42, (1R,2R)-3-Chloro-4-(2-methyl-cyclohexyloxy)benzonitrile], the half-maximal inhibitory concentration (IC50) was 343 nM.

Consider `CC1(C)CC(Oc2ccc(C#N)cc2Cl)CC(C)(C)C1` [Example 44, 3-Chloro-4-(3,3,5,5-tetramethyl-cyclohexyloxy)-benzonitrile], for which the half-inhibitory concentration (IC50) came out at 410 nM.

As for `C[C@@H]1CCC[C@H](Oc2ccc(C#N)c(Cl)c2)C1` [Example 48, (1S,3R)-2-Chloro-4-(3-methyl-cyclohexyloxy)-benzonitrile], the half-inhibitory concentration (IC50) stood at 218 nM.

For the compound `CC1CCC(Oc2ccc(C#N)c(Cl)c2)CC1C` (centres unmarked) [Example 51, 2-Chloro-4-(3,4-dimethyl-cyclohexyloxy)-benzonitrile], the IC50 was determined as 442 nM.

As for `C[C@H]1CC[C@@H](Oc2ccc(C#N)c(Cl)c2)CC1` [Example 54, (1S,4S)-2-Chloro-4-(4-methyl-cyclohexyloxy)-benzonitrile], the IC50 was 356 nM.

For `C[C@H]1CC[C@H](Oc2ccc(C#N)cc2Cl)CC1` [Example 59, (1S,4R)-3-Chloro-4-(4-methyl-cyclohexyloxy)-benzonitrile], the IC50 came out at 341 nM.

Take `C[C@@H]1CCC[C@H](Oc2ccc(C#N)cc2Cl)C1` [Example 60, (1S,3R)3-Chloro-4-(3-methyl-cyclohexyloxy)-benzonitrile]: the IC50 amounted to 388 nM.

In the case of `CC(C)[C@H]1CC[C@H](C)C[C@@H]1Oc1ccc(C#N)cc1Cl` [Example 61, (1S,2R,5S)-3-Chloro-4-(2-isopropyl-5methyl-cyclohexyloxy)-benzonitrile], the half-maximal inhibitory concentration (IC50) came out at 257 nM.

Take `CC1CCCC(Oc2ccc(C#N)cc2Cl)C1C` (centres unmarked) [Example 63, 3-Chloro-4-(2,3-dimethyl-cyclohexyloxy)-benzonitrile]: the 50% inhibitory concentration (IC50) was 374 nM.

For the compound `C[C@H]1CC(Oc2ccc(C#N)c(Cl)c2)C[C@H](C)C1` (stereo partly drawn) [Example 65, (3R,5R)-2-Chloro-4-(trans)-(3,5-dimethyl-cyclohexyloxy)-benzonitrile], the half-maximal inhibitory concentration (IC50) stood at 437 nM.

Consider `C[C@@H]1CCC[C@H]1Oc1ccc(C#N)cc1Cl` [Example 66, (1R,2R)-3-Chloro-4-(2-methyl-cyclopentyloxy)-benzonitrile], for which the IC50 was 402 nM.
